Here are results for 1 compound from patent US20220273590A1, “COMPOUNDS FOR PREVENTION AND TREATMENT OF POST-OPERATIVE COGNITIVE DYSFUNCTION” (ABREXA PHARMACEUTICALS, INC., priority 2019, published 2022).

Assay [1] relates to animal model of POCD. Kind of assay: Novel Object and Novel Location Recognition (NOR/NLR) after abdominal surgery. It counts as in vivo, Wistar rats. On the procedure:
Male Wistar rats (˜350 g) were randomly divided into 4 experimental groups; non-surgery; control abdominal surgery; surgery+acute J147 treatment (7 mg/rat by gavage, 4-5 hours before surgery); surgery+chronic J147 (500 mg/kg food, 1 week before surgery until the end of the study). Timed blood samples were collected. Days 9-11 post surgery, general behavior (Open field: OF) and cognitive performance (Novel Object/Novel Location Recognition: NOR/NLR; Morris Water Maze: MWM) were tested. Day 14, rats were sacrificed and blood and brain tissue were collected for further analyses. (Neuro)inflammation was examined by circulating cytokine levels and microglia activation in the brain. Abdominal surgery was performed as described previously by Hovens et al., 2014. Rats were anaesthetized using sevoflurane (±2.5% in air/O2=2/1) and received 0.01 mg/kg buprenorphine s.c. A heating blanket was used to preserve body temperature. An incision was made along the linea alba and the intestines were exteriorised. The upper mesenteric artery was isolated from surrounding tissue and clamped for a period of 30 minutes during which the intestines and surgical wound were covered with gauze soaked in saline, to prevent dehydration. During this time the animals were equipped with an indwelling jugular vein catheter to mimic insertion of a venous line in patients and allow timed blood sampling. For that, an incision was made at the subclavical region, the jugular vein was freed from surrounding tissue and a catheter was introduced and advanced into the vena cava, just above the right atrium. The other end of the catheter was guided subcutaneously to the head, and fixated on the skull with dental cement. The catheter was filled with PVP dissolved in heparin solution and closed with a plastic plug. After subsequent removal of the mesenteric artery clamp, the intestines were gently placed back and the abdominal wall and skin were closed separately by sutures. Clamping and reperfusion were visually verified by absence or presence of pulsation in the mesenteric artery distal to the clamp site. From induction to recovery, the procedure takes approximately 60 minutes. Post-operatively, the animals were allowed to recover and subsequently were housed individually. Rats were weighed daily at the last hour of the dark period. Maximal weight loss within the first 5 days post-surgery was taken as measure of experienced severity of surgery. Behavioral tests were performed in the dark (active) period of the rats. The lights were turned on at 9:00 p.m. and off at 9:00 a.m. […] General exploratory behavior and anxiety was tested in the Open field (OF) test; spatial learning, spatial memory and cognitive flexibility in the Morris Water Maze (MWM); spatial working memory in the novel location recognition test (NL); the novel object recognition test (NO) for working memory on object recognition. The Novel Object and Novel Location Recognition were tested in random order in one procedure to assess spatial short term memory and object memory. For this test, an open square box (50×50×40 cm) with 2 transparent and two grey walls was used. Objects used in the test were selected from a pilot study, investigating the preferences of rats for different objects. Rats were habituated to the box for 3 minutes, the day before the test. The test consisted of four phases, each phase took 3 minutes. Between each phase there was a break of 45 seconds in which the rat remained in the test box. The first phase was performed in an empty box, in the second phase two identical objects were placed in both corners at the nearest end of the box. In this phase, the rat was allowed to explore both objects. After this exploration phase either a novel object test or novel location test was performed. Before the start of each phase both objects were removed from the box and cleaned with 70% ethanol. […]

Assay [2] concerns animal model of POCD. Kind of assay: Overall outcome in the animal model of POCD (abdominal surgery). It counts as in vivo, Wistar rats. As for the experimental part:
In this study, the effects of J147 in an animal model of POCD were investigated. Male Wistar rats (˜350 g) were randomly divided into 4 experimental groups; non-surgery; control abdominal surgery; surgery+acute J147 treatment (7 mg/rat by gavage, 4-5 hours before surgery); surgery+chronic J147 (500 mg/kg food, 1 week before surgery until the end of the study). Timed blood samples were collected. Days 9-11 post surgery, general behavior (Open field: OF) and cognitive performance (Novel Object/Novel Location Recognition: NOR/NLR; Morris Water Maze: MWM) were tested. Day 14, rats were sacrificed and blood and brain tissue were collected for further analyses. (Neuro)inflammation was examined by circulating cytokine levels and microglia activation in the brain. Within each cohort rats (n=12 per cohort) were equally divided over four experimental groups, including non-surgery, control surgery, surgery+acute J147 and surgery+chronic J147. Half of the non-surgery and control surgery groups received vehicle gavage and served as control for acute treatment. One week before surgery, chronic treatment J147 treatment started and continued until the end of the experiment. […] The first week post-surgery, rats were weighed daily and food intake was measured. […]

In the case of `COc1cccc(/C=N/N(C(=O)C(F)(F)F)c2ccc(C)cc2C)c1` [J147], the “NOR score (novel object preference)” value in the assay with animal model of POCD [1] (Surgery + acute J147, n = 12, random = 50%) amounted to 60 ± 5%; with animal model of POCD [1] (Surgery + chronic J147, n = 12, random = 50%, significantly different from random), 58 ± 4%. In addition, the “Baseline exploration (% time)” value with animal model of POCD [1] (Surgery + acute J147, n = 15, mean ± SEM) is 23.6 ± 2.3 % time; in the assay on animal model of POCD [1] (Surgery + chronic J147, n = 15, mean ± SEM), 16.8 ± 2.5 % time. The “NLR score (novel location preference)” value in the assay with animal model of POCD [1] (Surgery + acute J147, n = 15, random = 50%, significantly different from random) came out at 61 ± 4%; in the assay on animal model of POCD [1] (Surgery + chronic J147, n = 11, random = 50%, significantly different from random), 70 ± 6%. The “difference between the groups in preference for the novel or relocated object” value with animal model of POCD [1] (acute and chronic J147 versus control groups) is reported as “No significant differences”. In addition, the “NLR test performance versus random” value with animal model of POCD [1] (both treated groups (acute and chronic J147)) is recorded as “performed above random”. The “NLR performance compared with other groups” value in the assay on animal model of POCD [1] (chronically treated rats) is reported as “performed best in NLR”. Also, the “NOR, effect of treatment” value with animal model of POCD [1] (chronically treated rats) is “not affected”. Further, the “impaired cognitive aspects after surgery” value with animal model of POCD [2] (chronic J147 administration) is given as “capable of preventing all impaired cognitive aspects after surgery”. Moreover, the “conditions after surgery (body weight loss, behavior in the OF)” value in the assay with animal model of POCD [2] (chronic treatment) was “generally improved conditions after surgery”.
